Drawing on paper PMC6934184, “Selective DNA-PKcs inhibition extends the therapeutic index of localized radiotherapy and chemotherapy” (The Journal of Clinical Investigation, 2019), this text covers inhibition for one compound.

This assay addresses T1, STK17B (DRAK2) (Homo sapiens, UniProt O94768).
T1 construct: purchased Thermo Fisher Scientific (Life Technologies) SelectScreen
Briefly: SelectScreen LanthaScreen. The class given is binding. The note with it: read-out: % displacement. The procedure, abridged: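 NU5455 was profiled across the SelectScreen Broad panel of kinase activity and binding assays. Z'LYTE reactions such as CSF1R ran at apparent Km ATP, while the Adapta CAMK1 assay used ATP listed as 10. Values are given as percent.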
In general terms: TR-FRET usually uses a lanthanide donor and a delayed reading to cut background.

Structures are written as SMILES.

T1 sequence (O94768 whole entry): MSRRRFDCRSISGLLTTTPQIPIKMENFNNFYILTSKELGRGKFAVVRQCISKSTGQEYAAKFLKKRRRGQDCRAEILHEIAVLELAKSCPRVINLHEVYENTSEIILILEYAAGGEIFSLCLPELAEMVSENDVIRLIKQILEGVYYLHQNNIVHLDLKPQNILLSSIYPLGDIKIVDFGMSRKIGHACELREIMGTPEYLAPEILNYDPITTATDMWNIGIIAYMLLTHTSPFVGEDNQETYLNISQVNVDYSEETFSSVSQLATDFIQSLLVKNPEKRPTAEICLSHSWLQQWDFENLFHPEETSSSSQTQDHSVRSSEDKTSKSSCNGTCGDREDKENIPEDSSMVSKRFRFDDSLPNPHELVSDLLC

For `CN(C(=O)CN1CCOCC1)c1ccc2sc3c(-c4cccc5c(=O)cc(N6CC7CCC(C6)O7)oc45)cccc3c2c1` [NU5455], the inhibition at 1 µM was 2.7%.
